How the values were obtained:
Test in all cases: AlphaScreen Assay
Conditions in all cases: pH 8
PHD finger protein 19 = PHD finger protein 19 (Homo sapiens, UniProt Q5T6S3)
Experimental: (§1) In brief, compound plates (1 μL at 10 mM highest concentration; 3-fold, 10-point dilutions in DMSO) were diluted in 1X assay buffer (20 mM TRIS pH 8.0, 25 mM NaCl, 2 mM DTT and 0.05% Tween-20) to 1 mM using a Multimek robotic pipettor (Nanoscreen), and 1 μL was spotted into the wells of 384-well low-volume Proxiplates (PerkinElmer). To these plates was added 9 μL of protein−peptide mix in a 1X assay buffer by Multidrop (Thermo) to bring the final compound concentration to 100 μM, and this was incubated for 30 min at RT. Next, 2 μL of a 1:1 mixture of streptavidin-conjugate donor and nickel-chelate acceptor beads (45μg/mL in 1X assay buffer) were added, and the plates were allowed to incubate for an additional 30 min in the dark at RT. After incubation, the plates were read on an EnVision multilabel reader equipped with an HTS AlphaScreen laser (PerkinElmer).

PHD finger protein 1 = target: T1, PHD finger protein 1 (Homo sapiens, UniProt O43189)
T1 sequence (O43189 whole entry): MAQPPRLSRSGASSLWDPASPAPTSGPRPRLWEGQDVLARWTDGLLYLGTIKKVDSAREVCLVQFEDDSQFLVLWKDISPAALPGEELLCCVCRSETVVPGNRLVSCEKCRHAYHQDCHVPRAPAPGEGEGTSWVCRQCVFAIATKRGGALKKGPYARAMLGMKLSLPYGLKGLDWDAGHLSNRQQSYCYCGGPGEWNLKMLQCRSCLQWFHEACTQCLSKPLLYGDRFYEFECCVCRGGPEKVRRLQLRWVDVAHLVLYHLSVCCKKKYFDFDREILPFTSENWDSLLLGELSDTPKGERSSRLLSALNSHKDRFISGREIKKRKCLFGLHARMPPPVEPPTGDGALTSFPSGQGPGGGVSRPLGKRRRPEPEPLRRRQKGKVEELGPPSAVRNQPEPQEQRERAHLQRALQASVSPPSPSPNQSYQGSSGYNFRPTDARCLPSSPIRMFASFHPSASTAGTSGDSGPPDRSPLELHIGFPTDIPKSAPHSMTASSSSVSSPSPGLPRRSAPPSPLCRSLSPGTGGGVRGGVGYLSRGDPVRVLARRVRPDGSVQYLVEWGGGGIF
Experimental: as §1

[1] = target: T2, Chromobox protein homolog 7 (Homo sapiens, UniProt O95931)
T2 sequence (O95931 whole entry): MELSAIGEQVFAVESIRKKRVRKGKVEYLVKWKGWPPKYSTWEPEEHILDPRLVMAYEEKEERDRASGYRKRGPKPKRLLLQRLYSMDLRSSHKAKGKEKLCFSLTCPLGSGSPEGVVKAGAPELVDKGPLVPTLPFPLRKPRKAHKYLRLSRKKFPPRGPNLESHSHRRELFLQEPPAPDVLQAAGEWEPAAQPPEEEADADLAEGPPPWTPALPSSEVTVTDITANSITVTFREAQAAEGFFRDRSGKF
Experimental: as §1

[2] = target: Lysine-specific demethylase 5A (Homo sapiens, UniProt P29375)
Lysine-specific demethylase 5A, sequence (P29375 whole entry): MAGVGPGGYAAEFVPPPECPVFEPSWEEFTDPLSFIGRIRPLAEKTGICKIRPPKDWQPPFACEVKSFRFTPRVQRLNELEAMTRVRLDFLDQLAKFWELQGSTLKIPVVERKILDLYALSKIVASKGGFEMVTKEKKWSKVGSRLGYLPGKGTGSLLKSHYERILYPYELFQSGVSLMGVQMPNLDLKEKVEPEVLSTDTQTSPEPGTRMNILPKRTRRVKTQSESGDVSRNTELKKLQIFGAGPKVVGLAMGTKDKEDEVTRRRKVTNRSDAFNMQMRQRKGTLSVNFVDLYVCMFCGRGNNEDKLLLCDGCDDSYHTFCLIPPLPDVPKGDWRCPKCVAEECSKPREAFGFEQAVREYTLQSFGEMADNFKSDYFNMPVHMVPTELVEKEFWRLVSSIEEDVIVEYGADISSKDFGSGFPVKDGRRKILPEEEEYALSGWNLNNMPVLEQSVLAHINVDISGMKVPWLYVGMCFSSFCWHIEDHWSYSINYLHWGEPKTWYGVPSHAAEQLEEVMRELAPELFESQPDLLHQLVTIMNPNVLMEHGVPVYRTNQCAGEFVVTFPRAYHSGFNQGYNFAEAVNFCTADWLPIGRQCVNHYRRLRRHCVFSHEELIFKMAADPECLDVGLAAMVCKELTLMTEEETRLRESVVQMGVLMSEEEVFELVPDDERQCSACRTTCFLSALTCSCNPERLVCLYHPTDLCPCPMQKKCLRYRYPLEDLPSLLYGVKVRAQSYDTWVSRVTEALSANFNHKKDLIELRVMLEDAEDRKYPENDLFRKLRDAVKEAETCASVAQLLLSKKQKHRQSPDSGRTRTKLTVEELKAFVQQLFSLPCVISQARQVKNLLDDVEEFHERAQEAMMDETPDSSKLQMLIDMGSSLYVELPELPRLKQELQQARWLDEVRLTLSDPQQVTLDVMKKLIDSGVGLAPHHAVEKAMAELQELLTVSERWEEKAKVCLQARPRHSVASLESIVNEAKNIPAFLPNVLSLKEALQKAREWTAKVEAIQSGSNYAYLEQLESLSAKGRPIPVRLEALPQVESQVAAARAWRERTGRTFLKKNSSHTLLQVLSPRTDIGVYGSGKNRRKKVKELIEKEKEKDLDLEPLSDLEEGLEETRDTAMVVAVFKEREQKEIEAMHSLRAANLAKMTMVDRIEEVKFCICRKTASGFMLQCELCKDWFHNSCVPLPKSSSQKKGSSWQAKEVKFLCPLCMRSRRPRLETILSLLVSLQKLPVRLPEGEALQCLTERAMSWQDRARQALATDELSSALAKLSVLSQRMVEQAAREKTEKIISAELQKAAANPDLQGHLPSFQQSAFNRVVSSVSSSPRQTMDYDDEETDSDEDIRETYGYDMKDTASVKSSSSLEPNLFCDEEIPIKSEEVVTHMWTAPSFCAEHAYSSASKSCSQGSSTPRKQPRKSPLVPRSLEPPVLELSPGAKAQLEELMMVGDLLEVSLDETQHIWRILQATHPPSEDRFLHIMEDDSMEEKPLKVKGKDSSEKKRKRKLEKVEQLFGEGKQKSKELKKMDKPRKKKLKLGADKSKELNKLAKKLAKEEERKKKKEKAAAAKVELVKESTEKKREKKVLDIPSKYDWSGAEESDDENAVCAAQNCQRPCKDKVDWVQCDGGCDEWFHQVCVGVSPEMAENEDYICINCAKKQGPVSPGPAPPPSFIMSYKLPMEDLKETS
Experimental: as §1

Measured: IC50

CC(C)(C)NCCCCCNC(=O)c1cccc(Br)c1 [3-Bromo-N-(5-(tert-butylamino)pentyl)benzamide (12)]
> 100 µM: all assays above

CC(C)(C)NCCCNC(=O)c1ccccc1Br [2-Bromo-N-(3-(tert-butylamino)propyl)benzamide (16)]
> 100 µM: all assays above

CC(C)(C)NCCCNC(=O)c1ccc(Br)cc1 [4-Bromo-N-(3-(tert-butylamino)propyl)benzamide (15)]
> 100 µM: all assays above

CC(C)(C)NCCCNC(=O)c1cc(Br)ccn1 [4-Bromo-N-(3-(tert-butylamino)propyl)picolinamide (24)]
> 100 µM: all assays above

CC(C)(C)NCCCNC(=O)c1cc(C(F)(F)F)ccn1 [N-(3-(Tert-butylamino)propyl)-4-(trifluoromethyl)picolinamide (25)]
> 100 µM: all assays above

CC(C)(C)N1CCN(C(=O)c2cccc(Br)c2)CC1 [(3-Bromophenyl)(4-(tert-butyl)piperazin-1-yl)methanone (10)]
> 100 µM: all assays above

CC(C)(C)NCCCCNC(=O)c1cccc(Br)c1 [3-Bromo-N-(4-(tert-butylamino)butyl)benzamide (11)]
> 100 µM: all assays above

Reference: BindingDB's records for doi:10.1021/cb500956g (University of North Carolina At Chapel Hill, 2015)
